Data taken from ChEMBL document CHEMBL1135648, “Synthesis and evaluation of no-carrier-added 8-cyclopentyl-3-(3-[(18)F]fluoropropyl)-1-propylxanthine ([(18)F]CPFPX): a potent and selective A(1)-adenosine receptor antagonist for in vivo imaging” (J Med Chem, 2002).

Columns and labels:
Mus musculus [1] = test: In vivo biodistribution in NMRI (Naval Medical Research Institute) mice lung at the dose of 0.15-0.2 nmol at 5 min; assay type: ADME, organism-based
Mus musculus [2] = test: In vivo biodistribution in NMRI (Naval Medical Research Institute) mice heart at the dose of 0.15-0.2 nmol at 5 min; assay type: ADME, organism-based
Mus musculus [3] = test: In vivo biodistribution in NMRI (Naval Medical Research Institute) mice bone at the dose of 0.15-0.2 nmol at 5 min; assay type: ADME, organism-based, Bone element
Mus musculus [4] = test: In vivo biodistribution in NMRI (Naval Medical Research Institute) mice blood at the dose of 0.15-0.2 n mol at 2 min; assay type: ADME, organism-based
Mus musculus [5] = test: In vivo biodistribution in NMRI (Naval Medical Research Institute) mice liver at the dose of 0.15-0.2 nmol at 5 min; assay type: ADME, organism-based
Mus musculus [6] = test: In vivo biodistribution in NMRI (Naval Medical Research Institute) mice lung at the dose of 0.15-0.2 nmol at 10 min; assay type: ADME, organism-based
Mus musculus [7] = test: In vivo biodistribution in NMRI (Naval Medical Research Institute) mice pancreas at the dose of 0.15-0.2 nmol at 40 min; assay type: ADME, organism-based
Mus musculus [8] = test: In vivo biodistribution in NMRI (Naval Medical Research Institute) mice bone at the dose of 0.15-0.2 nmol at 2 min; assay type: ADME, organism-based, Bone element
Mus musculus [9] = test: In vivo biodistribution in NMRI (Naval Medical Research Institute) mice kidney at the dose of 0.15-0.2 nmol at 5 min; assay type: ADME, organism-based
Mus musculus [10] = test: In vivo biodistribution in NMRI (Naval Medical Research Institute) mice kidney at the dose of 0.15-0.2 nmol at 40 min; assay type: ADME, organism-based
Mus musculus [11] = test: In vivo biodistribution in NMRI (Naval Medical Research Institute) mice blood at the dose of 0.15-0.2 nmol at 10 min; assay type: ADME, organism-based
Mus musculus [12] = test: In vivo biodistribution in NMRI (Naval Medical Research Institute) mice intestine at the dose of 0.15-0.2 nmol at 20 min; assay type: ADME, organism-based
Mus musculus [13] = test: In vivo biodistribution in NMRI (Naval Medical Research Institute) mice pancreas at the dose of 0.15-0.2 nmol at 2 min; assay type: ADME, organism-based
Mus musculus [14] = test: In vivo biodistribution in NMRI (Naval Medical Research Institute) mice liver at the dose of 0.15-0.2 nmol at 10 min; assay type: ADME, organism-based
Mus musculus [15] = test: In vivo biodistribution in NMRI (Naval Medical Research Institute) mice blood at the dose of 0.15-0.2 nmol at 5 min; assay type: ADME, organism-based
Mus musculus [16] = test: In vivo biodistribution in NMRI (Naval Medical Research Institute) mice intestine at the dose of 0.15-0.2 nmol at 2 min; assay type: ADME, organism-based
Mus musculus [17] = test: In vivo biodistribution in NMRI (Naval Medical Research Institute) mice pancreas at the dose of 0.15-0.2 nmol at 60 min; assay type: ADME, organism-based; conditions: 1 h
Adenosine receptor A2a = Adenosine receptor A2a (Rattus norvegicus, UniProt P30543); test: In vitro binding affinity at Adenosine A2A receptor of rat cortex
Sequence of Adenosine receptor A2a (P30543 whole entry): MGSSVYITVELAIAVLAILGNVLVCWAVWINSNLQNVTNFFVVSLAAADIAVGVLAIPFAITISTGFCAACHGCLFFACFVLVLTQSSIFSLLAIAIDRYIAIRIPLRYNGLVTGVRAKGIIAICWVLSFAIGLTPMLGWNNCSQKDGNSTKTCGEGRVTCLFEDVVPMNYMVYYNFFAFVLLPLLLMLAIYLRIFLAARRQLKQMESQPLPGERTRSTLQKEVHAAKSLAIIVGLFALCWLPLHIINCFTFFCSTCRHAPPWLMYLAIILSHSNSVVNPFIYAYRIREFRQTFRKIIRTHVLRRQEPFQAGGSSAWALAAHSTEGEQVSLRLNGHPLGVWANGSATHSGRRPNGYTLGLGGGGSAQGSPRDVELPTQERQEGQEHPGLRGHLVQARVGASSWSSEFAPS

Mus musculus [18] = test: In vivo biodistribution in NMRI (Naval Medical Research Institute) mice heart at the dose of 0.15-0.2 nmol at 40 min; assay type: ADME, organism-based
Mus musculus [19] = test: In vivo biodistribution in NMRI (Naval Medical Research Institute) mice pancreas at the dose of 0.15-0.2 nmol at 10 min; assay type: ADME, organism-based
Mus musculus [20] = test: In vivo biodistribution in NMRI (Naval Medical Research Institute) mice pnacreas at the dose of 0.15-0.2 nmol at 20 min; assay type: ADME, organism-based
Mus musculus [21] = test: In vivo biodistribution in NMRI (Naval Medical Research Institute) mice kidney at the dose of 0.15-0.2 nmol at 10 min; assay type: ADME, organism-based
Mus musculus [22] = test: In vivo biodistribution in NMRI (Naval Medical Research Institute) mice bone at the dose of 0.15-0.2 nmol at 10 min; assay type: ADME, organism-based, Bone element
Mus musculus [23] = test: In vivo biodistribution in NMRI (Naval Medical Research Institute) mice liver at the dose of 0.15-0.2 nmol at 20 min; assay type: ADME, organism-based
Mus musculus [24] = test: In vivo biodistribution in NMRI (Naval Medical Research Institute) mice intestine at the dose of 0.15-0.2 nmol at 5 min; assay type: ADME, organism-based
Mus musculus [25] = test: In vivo biodistribution in NMRI (Naval Medical Research Institute) mice blood at the dose of 0.15-0.2 nmol at 40 min; assay type: ADME, organism-based
Mus musculus [26] = test: In vivo biodistribution in NMRI (Naval Medical Research Institute) mice heart at the dose of 0.15-0.2 nmol at 2 min; assay type: ADME, organism-based
Mus musculus [27] = test: In vivo biodistribution in NMRI (Naval Medical Research Institute) mice liver at the dose of 0.15-0.2 nmol at 60 min; assay type: ADME, organism-based; conditions: 1 h
Mus musculus [28] = test: In vivo biodistribution in NMRI (Naval Medical Research Institute) mice brain at the dose of 0.15-0.2 nmol at 2 min; assay type: ADME, organism-based
Mus musculus [29] = test: In vivo biodistribution in NMRI (Naval Medical Research Institute) mice lung at the dose of 0.15-0.2 nmol at 20 min; assay type: ADME, organism-based
Mus musculus [30] = test: In vivo biodistribution in NMRI (Naval Medical Research Institute) mice liver at the dose of 0.15-0.2 nmol at 2 min; assay type: ADME, organism-based
Mus musculus [31] = test: In vivo biodistribution in NMRI (Naval Medical Research Institute) mice kidney at the dose of 0.15-0.2 nmol at 60 min; assay type: ADME, organism-based; conditions: 1 h
Mus musculus [32] = test: In vivo biodistribution in NMRI (Naval Medical Research Institute) mice bone at the dose of 0.15-0.2 nmol at 20 min; assay type: ADME, organism-based, Bone element

- ID/g (Mus musculus [1]): 4.22%
- ID/g (Mus musculus [2]): 3.71%
- ID/g (Mus musculus [3]): 1.4%
- ID/g (Mus musculus [4]): 11.2%
- ID/g (Mus musculus [5]): 7.44%
- ID/g (Mus musculus [6]): 5.79%
- ID/g (Mus musculus [7]): 3.22%
- ID/g (Mus musculus [8]): 0.37%
- ID/g (Mus musculus [9]): 3.81%
- ID/g (Mus musculus [10]): 5.95%
- ID/g (Mus musculus [11]): 5.21%
- ID/g (Mus musculus [12]): 3.51%
- ID/g (Mus musculus [13]): 3.58%
- ID/g (Mus musculus [14]): 8.64%
- ID/g (Mus musculus [15]): 6.53%
- ID/g (Mus musculus [16]): 2.07%
- ID/g (Mus musculus [17]): 1.03%
- Ki (Adenosine receptor A2a): 812 nM
- ID/g (Mus musculus [18]): 4.23%
- ID/g (Mus musculus [19]): 4.29%
- ID/g (Mus musculus [20]): 4.58%
- ID/g (Mus musculus [21]): 6.1%
- ID/g (Mus musculus [22]): 1.71%
- ID/g (Mus musculus [23]): 9.93%
- ID/g (Mus musculus [24]): 2.21%
- ID/g (Mus musculus [25]): 3.92%
- ID/g (Mus musculus [26]): 4.64%
- ID/g (Mus musculus [27]): 4.36%
- ID/g (Mus musculus [28]): 2.45%
- ID/g (Mus musculus [29]): 5.75%
- ID/g (Mus musculus [30]): 9.34%
- ID/g (Mus musculus [31]): 2.63%
- ID/g (Mus musculus [32]): 2.02%
Structure (SMILES): CCCn1c(=O)c2nc(C3CCCC3)[nH]c2n(CCC[18F])c1=O
